Test results published in publication doi:10.1101/2021.04.08.439011v1 (biorxiv, 2021).

Experiments:
[1] = biological target: JAK1(JH1domain-catalytic) (Homo sapiens, UniProt P23458); conditions: 0.1 µM; binder
[2] = biological target: TYK2(JH2domain-pseudokinase) (Homo sapiens, UniProt P29597); conditions: 0.1 µM; binder
[3] = biological target: RSK4(Kin.Dom.1-N-terminal) (Homo sapiens, UniProt Q9UK32); conditions: 0.1 µM; binder
PFCDPK1 (P. falciparum) = PFCDPK1 (P. falciparum) (Plasmodium falciparum, UniProt P62344); conditions: 1 µM; binder
PKNB (M. tuberculosis) = PKNB (M. tuberculosis) (Mycobacterium tuberculosis, UniProt P9WI81); conditions: 1 µM; binder
Sequence of PKNB (M. tuberculosis) (P9WI81 whole entry): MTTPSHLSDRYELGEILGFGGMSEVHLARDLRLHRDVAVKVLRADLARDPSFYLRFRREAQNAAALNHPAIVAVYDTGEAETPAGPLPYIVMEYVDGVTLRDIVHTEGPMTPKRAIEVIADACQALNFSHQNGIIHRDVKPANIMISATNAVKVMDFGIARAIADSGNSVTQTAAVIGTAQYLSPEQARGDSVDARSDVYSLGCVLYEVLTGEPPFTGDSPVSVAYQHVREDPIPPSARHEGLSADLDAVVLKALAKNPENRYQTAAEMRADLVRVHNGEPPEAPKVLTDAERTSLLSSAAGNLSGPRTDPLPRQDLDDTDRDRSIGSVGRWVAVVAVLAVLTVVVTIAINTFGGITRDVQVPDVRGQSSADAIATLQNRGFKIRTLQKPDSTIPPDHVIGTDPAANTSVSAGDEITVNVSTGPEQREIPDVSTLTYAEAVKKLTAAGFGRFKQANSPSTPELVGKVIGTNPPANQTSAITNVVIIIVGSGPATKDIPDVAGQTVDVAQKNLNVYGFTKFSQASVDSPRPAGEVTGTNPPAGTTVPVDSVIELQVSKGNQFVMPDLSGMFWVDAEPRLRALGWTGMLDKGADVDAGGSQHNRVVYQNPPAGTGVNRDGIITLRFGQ

Sequence of RSK4(Kin.Dom.1-N-terminal) (Q9UK32 whole entry): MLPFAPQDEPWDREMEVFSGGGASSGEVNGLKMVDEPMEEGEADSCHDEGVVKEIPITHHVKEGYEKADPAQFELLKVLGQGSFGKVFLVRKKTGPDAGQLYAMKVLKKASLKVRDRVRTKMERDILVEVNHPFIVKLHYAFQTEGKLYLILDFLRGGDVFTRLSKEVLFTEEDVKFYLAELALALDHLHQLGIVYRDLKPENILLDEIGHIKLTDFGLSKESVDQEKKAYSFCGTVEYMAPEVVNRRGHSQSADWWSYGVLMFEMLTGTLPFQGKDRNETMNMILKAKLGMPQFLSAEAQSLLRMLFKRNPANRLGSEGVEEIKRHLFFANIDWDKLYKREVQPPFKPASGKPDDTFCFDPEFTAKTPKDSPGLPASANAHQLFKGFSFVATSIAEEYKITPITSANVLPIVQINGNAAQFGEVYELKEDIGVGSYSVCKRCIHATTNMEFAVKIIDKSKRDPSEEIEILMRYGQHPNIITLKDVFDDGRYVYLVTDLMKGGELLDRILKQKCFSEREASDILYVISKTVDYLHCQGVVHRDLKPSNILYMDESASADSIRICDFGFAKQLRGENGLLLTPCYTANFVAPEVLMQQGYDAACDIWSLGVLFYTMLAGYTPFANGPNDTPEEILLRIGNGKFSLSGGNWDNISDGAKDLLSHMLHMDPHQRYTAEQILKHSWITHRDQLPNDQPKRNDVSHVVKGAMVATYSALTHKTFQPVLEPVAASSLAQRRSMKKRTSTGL
Sequence of TYK2(JH2domain-pseudokinase) (P29597 whole entry): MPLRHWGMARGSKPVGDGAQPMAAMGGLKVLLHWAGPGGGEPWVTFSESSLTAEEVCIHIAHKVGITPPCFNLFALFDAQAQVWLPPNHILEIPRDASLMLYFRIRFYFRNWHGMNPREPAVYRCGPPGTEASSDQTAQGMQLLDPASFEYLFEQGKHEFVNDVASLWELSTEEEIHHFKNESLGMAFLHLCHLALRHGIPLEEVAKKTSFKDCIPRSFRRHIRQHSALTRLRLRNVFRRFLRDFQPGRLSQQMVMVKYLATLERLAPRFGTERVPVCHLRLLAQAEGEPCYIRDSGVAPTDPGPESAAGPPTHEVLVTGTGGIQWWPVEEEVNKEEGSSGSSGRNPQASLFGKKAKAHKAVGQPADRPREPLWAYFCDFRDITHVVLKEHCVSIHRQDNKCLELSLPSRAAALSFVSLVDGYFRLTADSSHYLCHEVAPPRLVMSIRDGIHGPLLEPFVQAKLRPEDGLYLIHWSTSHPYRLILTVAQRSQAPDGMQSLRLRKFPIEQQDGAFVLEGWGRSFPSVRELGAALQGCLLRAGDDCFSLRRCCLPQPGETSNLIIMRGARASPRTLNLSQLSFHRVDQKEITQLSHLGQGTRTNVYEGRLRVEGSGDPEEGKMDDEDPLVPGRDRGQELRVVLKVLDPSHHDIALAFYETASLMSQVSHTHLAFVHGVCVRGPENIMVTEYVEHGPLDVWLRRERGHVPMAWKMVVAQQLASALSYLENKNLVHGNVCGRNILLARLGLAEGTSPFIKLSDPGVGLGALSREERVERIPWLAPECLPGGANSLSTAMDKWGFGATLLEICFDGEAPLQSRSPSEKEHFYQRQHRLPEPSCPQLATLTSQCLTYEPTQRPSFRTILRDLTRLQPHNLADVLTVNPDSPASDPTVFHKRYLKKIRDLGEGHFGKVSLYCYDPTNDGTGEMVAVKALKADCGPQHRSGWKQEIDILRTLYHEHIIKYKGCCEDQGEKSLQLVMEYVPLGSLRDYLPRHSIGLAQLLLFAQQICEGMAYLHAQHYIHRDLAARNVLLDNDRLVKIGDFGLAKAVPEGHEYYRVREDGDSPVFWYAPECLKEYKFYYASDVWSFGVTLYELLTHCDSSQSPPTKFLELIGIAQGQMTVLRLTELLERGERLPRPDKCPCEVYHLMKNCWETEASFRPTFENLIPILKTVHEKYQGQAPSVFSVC
Sequence of JAK1(JH1domain-catalytic) (P23458 whole entry): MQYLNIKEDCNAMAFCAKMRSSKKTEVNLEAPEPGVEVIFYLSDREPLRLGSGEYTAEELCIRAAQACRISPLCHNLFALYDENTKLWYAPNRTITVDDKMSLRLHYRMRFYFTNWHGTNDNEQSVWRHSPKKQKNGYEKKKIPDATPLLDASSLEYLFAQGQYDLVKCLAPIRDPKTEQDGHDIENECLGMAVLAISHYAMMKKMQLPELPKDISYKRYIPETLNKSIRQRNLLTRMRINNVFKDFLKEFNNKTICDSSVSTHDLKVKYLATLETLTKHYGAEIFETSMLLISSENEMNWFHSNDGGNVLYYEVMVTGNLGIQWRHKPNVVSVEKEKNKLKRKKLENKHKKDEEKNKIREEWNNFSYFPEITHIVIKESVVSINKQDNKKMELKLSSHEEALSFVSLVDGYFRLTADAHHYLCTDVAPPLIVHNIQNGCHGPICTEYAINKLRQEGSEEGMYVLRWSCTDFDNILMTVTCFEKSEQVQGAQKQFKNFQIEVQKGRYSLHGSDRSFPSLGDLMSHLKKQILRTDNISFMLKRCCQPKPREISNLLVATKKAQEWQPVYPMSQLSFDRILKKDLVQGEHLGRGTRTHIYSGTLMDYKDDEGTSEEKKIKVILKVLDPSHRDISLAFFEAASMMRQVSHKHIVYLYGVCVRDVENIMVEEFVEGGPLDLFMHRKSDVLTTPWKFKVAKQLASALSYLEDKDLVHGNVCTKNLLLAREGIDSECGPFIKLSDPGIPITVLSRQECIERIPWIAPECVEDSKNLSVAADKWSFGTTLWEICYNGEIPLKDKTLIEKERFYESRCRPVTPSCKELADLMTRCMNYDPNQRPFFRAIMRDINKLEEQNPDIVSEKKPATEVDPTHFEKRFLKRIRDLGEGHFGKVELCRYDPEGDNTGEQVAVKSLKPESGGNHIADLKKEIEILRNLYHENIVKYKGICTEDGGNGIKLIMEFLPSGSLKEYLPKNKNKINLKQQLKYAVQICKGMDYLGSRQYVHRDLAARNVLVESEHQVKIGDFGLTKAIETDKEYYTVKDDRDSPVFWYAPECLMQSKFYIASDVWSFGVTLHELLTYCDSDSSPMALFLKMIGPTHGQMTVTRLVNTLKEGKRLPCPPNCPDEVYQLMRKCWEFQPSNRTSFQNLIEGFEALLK
Sequence of PFCDPK1 (P. falciparum) (P62344 whole entry): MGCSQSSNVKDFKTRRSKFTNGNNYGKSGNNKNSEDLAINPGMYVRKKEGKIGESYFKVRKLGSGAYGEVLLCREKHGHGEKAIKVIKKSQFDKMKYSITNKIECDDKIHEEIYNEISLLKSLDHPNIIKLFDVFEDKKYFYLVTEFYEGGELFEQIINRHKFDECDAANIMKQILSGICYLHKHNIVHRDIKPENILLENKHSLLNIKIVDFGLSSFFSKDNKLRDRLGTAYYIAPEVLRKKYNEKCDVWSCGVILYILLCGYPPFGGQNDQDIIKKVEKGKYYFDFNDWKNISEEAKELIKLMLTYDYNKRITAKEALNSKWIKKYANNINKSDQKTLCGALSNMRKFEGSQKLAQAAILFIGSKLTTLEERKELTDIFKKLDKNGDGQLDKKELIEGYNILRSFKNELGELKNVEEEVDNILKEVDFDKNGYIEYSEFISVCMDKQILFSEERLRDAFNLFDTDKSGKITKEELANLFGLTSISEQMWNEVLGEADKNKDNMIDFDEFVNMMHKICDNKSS

Q: Which results are given for `CNc1ncc2cc(-c3ccc(-c4cccc(C)n4)cc3Cl)c(=O)n(C[C@H]3OC[C@H](N)CO3)c2n1` [compound 6, G-5555]?
A: Percent Control [1]: 100%; Percent Control [2]: 84%; Percent Control [3]: 97%; Percent Control (PFCDPK1 (P. falciparum)): 0.4%; Percent Control (PKNB (M. tuberculosis)): 51%
